Measurements published in the CheMixHub viscosity set.
“And” between values parts separate entries of the source, which are not always exact repeats. Equal entries are not always repeated. ± gives the uncertainty stated by the source.

Assay: xn = mol fraction of the nth substance listed

Nc1ccn([C@@H]2O[C@H](CO)C(O)C2O)c(=O)n1 (stereo partly specified) + O
viscosity [mPa·s], 101.3 kPa
Conditions	293.15 K	298.15 K	303.15 K	308.15 K	313.15 K	318.15 K
x1 = 0.0001861	–	0.895 ± 0.025	–	0.723 ± 0.024	–	0.6 ± 0.024
x1 = 0.000263	1.008 ± 0.041	0.897 ± 0.041	0.809 ± 0.041	0.74 ± 0.04	0.625 ± 0.04	–
x1 = 0.000342	1.009 ± 0.041	0.898 ± 0.041	0.81 ± 0.041	0.741 ± 0.04	0.626 ± 0.04	–
x1 = 0.0003829	–	0.899 ± 0.025	–	0.727 ± 0.024	–	0.603 ± 0.024
x1 = 0.000448	1.012 ± 0.041	0.901 ± 0.041	0.813 ± 0.041	0.744 ± 0.04	0.628 ± 0.04	–
x1 = 0.000537	1.014 ± 0.041	0.903 ± 0.041	0.815 ± 0.041	0.746 ± 0.04	0.63 ± 0.04	–
x1 = 0.0005621	–	0.903 ± 0.025	–	0.73 ± 0.024	–	0.606 ± 0.024
x1 = 0.000632	1.016 ± 0.041	0.905 ± 0.041	0.817 ± 0.041	0.748 ± 0.04	0.632 ± 0.04	–
x1 = 0.000689	–	0.906 ± 0.025	–	0.733 ± 0.024	–	0.608 ± 0.024
x1 = 0.000722	1.018 ± 0.041	0.907 ± 0.041	0.819 ± 0.041	0.75 ± 0.041	0.634 ± 0.04	–
x1 = 0.0007525	–	0.907 ± 0.025	–	0.734 ± 0.024	–	0.609 ± 0.024
x1 = 0.0007845	–	0.909 ± 0.025	–	0.735 ± 0.025	–	0.609 ± 0.024

O=S(=O)([O-])[O-].[Mg+2] + O
viscosity [mPa·s]
Conditions	308.15 K	313.15 K	323.15 K
101.3 kPa, x1 = 0.00112	0.74 ± 0.019	0.6745 ± 0.018	0.5642 ± 0.016
101.3 kPa, x1 = 0.002247	0.7982 ± 0.021	0.7215 ± 0.019	0.605 ± 0.017
101.3 kPa, x1 = 0.004484	0.8401 ± 0.022	0.76 ± 0.02	0.6392 ± 0.017
101.3 kPa, x1 = 0.008927	0.942 ± 0.024	0.8575 ± 0.022	0.733 ± 0.019
101.3 kPa, x1 = 0.0177	1.094 ± 0.027	0.955 ± 0.024	0.8368 ± 0.022
101.33 kPa, x1 = 0.000905	0.7405 ± 0.025	0.675 ± 0.023	0.5648 ± 0.02
101.33 kPa, x1 = 0.002718	0.7988 ± 0.027	0.722 ± 0.025	0.6054 ± 0.021
101.33 kPa, x1 = 0.00453	0.8405 ± 0.028	0.7605 ± 0.026	–
101.33 kPa, x1 = 0.006344	0.889 ± 0.03	0.8025 ± 0.027	0.6695 ± 0.023
101.33 kPa, x1 = 0.008159	0.942 ± 0.031	0.858 ± 0.029	0.7335 ± 0.025

O=[N+]([O-])[O-].O=[N+]([O-])[O-].O=[N+]([O-])[O-].[Y+3] + O
viscosity [mPa·s], 101.3 kPa
Conditions	x1 = 0.008908	x1 = 0.01764	x1 = 0.02626	x1 = 0.03447	x1 = 0.05042	x1 = 0.06636	x1 = 0.08199
293.15 K	1.335 ± 0.0098	1.809 ± 0.015	2.474 ± 0.021	3.484 ± 0.037	7.18 ± 0.1	15.24 ± 0.24	33.5 ± 0.3
298.15 K	1.191 ± 0.0087	1.61 ± 0.012	2.197 ± 0.016	3.056 ± 0.023	6.164 ± 0.049	12.8 ± 0.11	26.72 ± 0.23
308.15 K	0.9655 ± 0.0075	1.305 ± 0.0095	1.765 ± 0.013	2.405 ± 0.016	4.677 ± 0.031	8.991 ± 0.062	18.14 ± 0.19

[Br-].[K+] + O
Conditions	viscosity
293.15 K, 101.3 kPa, x1 = 0.0009	0.9993 ± 0.021 mPa·s
293.15 K, 101.3 kPa, x1 = 0.0018	0.9961 ± 0.021 mPa·s
293.15 K, 101.3 kPa, x1 = 0.00893	0.9721 ± 0.021 mPa·s
293.15 K, 101.3 kPa, x1 = 0.03478	0.9229 ± 0.02 mPa·s
293.15 K, 101.3 kPa, x1 = 0.05127	0.9162 ± 0.019 mPa·s
293.15 K, 101.3 kPa, x1 = 0.06722	0.9253 ± 0.02 mPa·s
298.15 K, 100 kPa, x1 = 0.002229	0.8854 ± 0.016 mPa·s
298.15 K, 100 kPa, x1 = 0.004266	0.8805 ± 0.016 mPa·s
298.15 K, 100 kPa, x1 = 0.008299	0.8743 ± 0.015 mPa·s
298.15 K, 100 kPa, x1 = 0.03864	0.8498 ± 0.015 mPa·s
298.15 K, 101.3 kPa, x1 = 0.0009	0.8884 ± 0.019 mPa·s and 0.8888 ± 0.0085 mPa·s
298.15 K, 101.3 kPa, x1 = 0.001798	0.8873 ± 0.0084 mPa·s
298.15 K, 101.3 kPa, x1 = 0.0018	0.8862 ± 0.019 mPa·s
298.15 K, 101.3 kPa, x1 = 0.00359	0.8842 ± 0.0084 mPa·s
298.15 K, 101.3 kPa, x1 = 0.005732	0.8803 ± 0.0084 mPa·s
298.15 K, 101.3 kPa, x1 = 0.008927	0.8746 ± 0.0083 mPa·s
298.15 K, 101.3 kPa, x1 = 0.00893	0.8692 ± 0.018 mPa·s
298.15 K, 101.3 kPa, x1 = 0.01421	0.8666 ± 0.0083 mPa·s
298.15 K, 101.3 kPa, x1 = 0.0177	0.8529 ± 0.018 mPa·s
298.15 K, 101.3 kPa, x1 = 0.02116	0.8588 ± 0.0082 mPa·s
298.15 K, 101.3 kPa, x1 = 0.03478	0.8352 ± 0.018 mPa·s
298.15 K, 101.3 kPa, x1 = 0.05127	0.8342 ± 0.018 mPa·s
303.15 K, 101.3 kPa, x1 = 0.0009	0.7962 ± 0.017 mPa·s
303.15 K, 101.3 kPa, x1 = 0.0018	0.7947 ± 0.017 mPa·s
303.15 K, 101.3 kPa, x1 = 0.00893	0.7827 ± 0.017 mPa·s
303.15 K, 101.3 kPa, x1 = 0.03478	0.7609 ± 0.016 mPa·s
303.15 K, 101.3 kPa, x1 = 0.05127	0.7639 ± 0.016 mPa·s
303.15 K, 101.3 kPa, x1 = 0.06722	0.7781 ± 0.017 mPa·s
308.15 K, 101.3 kPa, x1 = 0.0009	0.7187 ± 0.015 mPa·s and 0.7188 ± 0.007 mPa·s
308.15 K, 101.3 kPa, x1 = 0.001798	0.7187 ± 0.007 mPa·s
308.15 K, 101.3 kPa, x1 = 0.0018	0.7177 ± 0.015 mPa·s
308.15 K, 101.3 kPa, x1 = 0.00359	0.7178 ± 0.007 mPa·s
308.15 K, 101.3 kPa, x1 = 0.005732	0.7165 ± 0.007 mPa·s
308.15 K, 101.3 kPa, x1 = 0.008927	0.7145 ± 0.007 mPa·s
308.15 K, 101.3 kPa, x1 = 0.00893	0.7095 ± 0.015 mPa·s
308.15 K, 101.3 kPa, x1 = 0.01421	0.7121 ± 0.007 mPa·s
308.15 K, 101.3 kPa, x1 = 0.0177	0.7021 ± 0.015 mPa·s
308.15 K, 101.3 kPa, x1 = 0.02116	0.7104 ± 0.0069 mPa·s
308.15 K, 101.3 kPa, x1 = 0.03478	0.6969 ± 0.015 mPa·s
308.15 K, 101.3 kPa, x1 = 0.05127	0.7029 ± 0.015 mPa·s
308.15 K, 101.3 kPa, x1 = 0.06722	0.7189 ± 0.015 mPa·s
312.45 K, 100 kPa, x1 = 0.002229	0.661 ± 0.012 mPa·s
312.85 K, 100 kPa, x1 = 0.01672	0.6499 ± 0.011 mPa·s
313.55 K, 100 kPa, x1 = 0.03864	0.6449 ± 0.011 mPa·s
313.85 K, 100 kPa, x1 = 0.004266	0.6426 ± 0.011 mPa·s
313.95 K, 100 kPa, x1 = 0.008299	0.6399 ± 0.011 mPa·s
318.15 K, 101.3 kPa, x1 = 0.0009	0.5963 ± 0.013 mPa·s and 0.5961 ± 0.006 mPa·s
318.15 K, 101.3 kPa, x1 = 0.001798	0.5966 ± 0.006 mPa·s
318.15 K, 101.3 kPa, x1 = 0.0018	0.596 ± 0.013 mPa·s
318.15 K, 101.3 kPa, x1 = 0.00359	0.5969 ± 0.006 mPa·s
318.15 K, 101.3 kPa, x1 = 0.005732	0.5913 ± 0.0059 mPa·s
318.15 K, 101.3 kPa, x1 = 0.008927	0.5975 ± 0.006 mPa·s
318.15 K, 101.3 kPa, x1 = 0.00893	0.5928 ± 0.013 mPa·s
318.15 K, 101.3 kPa, x1 = 0.01421	0.5983 ± 0.006 mPa·s
318.15 K, 101.3 kPa, x1 = 0.0177	0.5908 ± 0.013 mPa·s
318.15 K, 101.3 kPa, x1 = 0.02116	0.5998 ± 0.006 mPa·s
318.15 K, 101.3 kPa, x1 = 0.03478	0.593 ± 0.013 mPa·s
318.15 K, 101.3 kPa, x1 = 0.05127	0.6036 ± 0.013 mPa·s
318.15 K, 101.3 kPa, x1 = 0.06722	0.6221 ± 0.013 mPa·s
321.85 K, 100 kPa, x1 = 0.002229	0.5597 ± 0.01 mPa·s
322.75 K, 100 kPa, x1 = 0.01672	0.5528 ± 0.0098 mPa·s
322.95 K, 100 kPa, x1 = 0.004266	0.552 ± 0.0099 mPa·s

CCOC(=O)CC(=O)OCC + O=C1CCCC1
viscosity [mPa·s], 101 kPa
Conditions	x1 = 0.0758	x1 = 0.1566	x1 = 0.2437	x1 = 0.3678	x1 = 0.4601	x1 = 0.5678	x1 = 0.6456	x1 = 0.7598	x1 = 0.8459	x1 = 0.9215
303.15 K	1.061 ± 0.023	1.125 ± 0.024	1.193 ± 0.026	1.288 ± 0.028	1.356 ± 0.029	1.433 ± 0.031	1.487 ± 0.032	1.565 ± 0.034	1.624 ± 0.035	1.675 ± 0.036
308.15 K	0.981 ± 0.021	1.038 ± 0.022	1.098 ± 0.024	1.18 ± 0.025	1.24 ± 0.027	1.307 ± 0.028	1.355 ± 0.029	1.425 ± 0.031	1.477 ± 0.032	1.524 ± 0.033
313.15 K	0.913 ± 0.02	0.964 ± 0.021	1.018 ± 0.022	1.094 ± 0.024	1.15 ± 0.025	1.213 ± 0.026	1.257 ± 0.027	1.321 ± 0.028	1.369 ± 0.03	1.412 ± 0.03

CCOC(=O)CC(=O)OCC + O=C1CCCCC1
viscosity [mPa·s], 101 kPa
Conditions	x1 = 0.0713	x1 = 0.1285	x1 = 0.2155	x1 = 0.3058	x1 = 0.407	x1 = 0.5085	x1 = 0.6055	x1 = 0.7125	x1 = 0.8065	x1 = 0.9118
303.15 K	1.79 ± 0.039	1.76 ± 0.038	1.727 ± 0.037	1.694 ± 0.037	1.665 ± 0.036	1.631 ± 0.035	1.625 ± 0.035	1.635 ± 0.036	1.667 ± 0.036	1.706 ± 0.037
308.15 K	1.623 ± 0.035	1.591 ± 0.034	1.553 ± 0.034	1.515 ± 0.033	1.487 ± 0.032	1.458 ± 0.032	1.454 ± 0.032	1.465 ± 0.032	1.497 ± 0.032	1.533 ± 0.033
313.15 K	1.495 ± 0.032	1.463 ± 0.032	1.423 ± 0.031	1.386 ± 0.03	1.352 ± 0.029	1.333 ± 0.029	1.33 ± 0.029	1.341 ± 0.029	1.371 ± 0.03	1.406 ± 0.03

CCCCCCCCCCCCCC[P+](CCCCCC)(CCCCCC)CCCCCC.c1ccc2[n-]cnc2c1 + O=C=O
Conditions	viscosity [mPa·s]
298.15 K, 100 kPa, x2 = 0.545	388 ± 15
